The source of these data is ChEMBL document CHEMBL5465560, “Selectivity Literature for EUbOPEN Chemogenomic Library” (2024).

The target of experiment [1] is Calcium/calmodulin-dependent protein kinase kinase 1 (Homo sapiens) (UniProt Q8N5S9). Put plainly: Selectivity interaction (Ambit KINOMEscan and KiNATiv profiling in Jurkat cells) EUB0000090b CAMKK1. To be noted: at 1 µM. Type of experiment: cell-based.
For experiment [2], the target named is Tyrosine-protein kinase ABL2 (Homo sapiens, UniProt P42684). To be noted: at 10 µM.
Experiment [3] deals with T1, Ephrin type-A receptor 1 (Homo sapiens) (UniProt P21709).
T1 sequence (whole entry): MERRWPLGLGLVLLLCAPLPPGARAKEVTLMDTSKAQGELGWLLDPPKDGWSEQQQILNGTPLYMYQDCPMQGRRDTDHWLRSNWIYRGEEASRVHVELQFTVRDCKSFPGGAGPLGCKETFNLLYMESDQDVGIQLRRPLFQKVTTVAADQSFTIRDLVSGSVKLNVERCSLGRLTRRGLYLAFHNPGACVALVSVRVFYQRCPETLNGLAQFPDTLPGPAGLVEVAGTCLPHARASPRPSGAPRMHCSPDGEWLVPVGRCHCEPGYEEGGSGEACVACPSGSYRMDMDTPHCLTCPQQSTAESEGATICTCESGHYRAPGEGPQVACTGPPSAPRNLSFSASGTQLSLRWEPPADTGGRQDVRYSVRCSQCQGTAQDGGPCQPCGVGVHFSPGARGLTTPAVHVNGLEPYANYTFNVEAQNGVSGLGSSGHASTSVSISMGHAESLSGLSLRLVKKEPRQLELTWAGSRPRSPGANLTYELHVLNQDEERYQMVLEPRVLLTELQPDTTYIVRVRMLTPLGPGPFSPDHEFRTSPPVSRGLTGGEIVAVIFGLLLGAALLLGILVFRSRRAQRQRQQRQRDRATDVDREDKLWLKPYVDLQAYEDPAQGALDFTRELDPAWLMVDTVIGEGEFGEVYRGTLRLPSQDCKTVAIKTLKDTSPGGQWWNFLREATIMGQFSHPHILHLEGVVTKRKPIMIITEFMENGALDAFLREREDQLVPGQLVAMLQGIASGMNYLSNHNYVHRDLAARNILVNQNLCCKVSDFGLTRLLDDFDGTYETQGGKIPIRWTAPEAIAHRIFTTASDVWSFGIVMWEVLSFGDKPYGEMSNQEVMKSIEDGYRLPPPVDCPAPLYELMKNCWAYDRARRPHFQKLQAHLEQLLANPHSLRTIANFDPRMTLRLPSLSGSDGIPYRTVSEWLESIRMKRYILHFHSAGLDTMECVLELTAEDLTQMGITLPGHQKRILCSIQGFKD
Put plainly: Selectivity interaction (KinomeScan (DiscoverX)) EUB0001079a EPHA1. To be noted: at 1 µM.

The target of experiment [4] is Tyrosine-protein kinase Fyn (Homo sapiens) (UniProt P06241). Kind of experiment: Selectivity interaction (KinomeScan (DiscoverX)) EUB0000092b FYN. To be noted: at 10 µM.
Experiment [5] has as its target Bromodomain adjacent to zinc finger domain protein 2B (Homo sapiens) (UniProt Q9UIF8). Kind of experiment: Selectivity interaction (Bromodomain panel (DSF asssay)) EUB0000270b BAZ2B.
Experiment [6] concerns the target Serine/threonine-protein kinase/endoribonuclease IRE1 (Homo sapiens) (UniProt O75460). Kind of experiment: Selectivity interaction (LanthaScreen Eu Kinase Binding Assay) EUB0001632a ERN1. To be noted: at 10 µM. In general terms: TR-FRET usually uses a lanthanide donor and a delayed reading to cut background.
Experiment [7] deals with Histone-lysine N-methyltransferase KMT5B (Homo sapiens) (UniProt Q4FZB7). Put plainly: Selectivity interaction (Methyltransferase screen (radiometric assays, panel of 8 PRMTs, 21 protein lysine methyltransferases, 3 DNA methyltransferases, and one RNA methyltransferase)) EUB0000272b SUV420H1.
For experiment [8], the target named is Vascular endothelial growth factor receptor 2 (Homo sapiens, UniProt P35968). Put plainly: Selectivity interaction (SelectScreen profiling (Invitrogen)) EUB0000607a KDR. To be noted: at 2 µM.
Experiment [9] concerns the target T2, SNF-related serine/threonine-protein kinase (Homo sapiens) (UniProt Q9NRH2).
T2 sequence (whole entry): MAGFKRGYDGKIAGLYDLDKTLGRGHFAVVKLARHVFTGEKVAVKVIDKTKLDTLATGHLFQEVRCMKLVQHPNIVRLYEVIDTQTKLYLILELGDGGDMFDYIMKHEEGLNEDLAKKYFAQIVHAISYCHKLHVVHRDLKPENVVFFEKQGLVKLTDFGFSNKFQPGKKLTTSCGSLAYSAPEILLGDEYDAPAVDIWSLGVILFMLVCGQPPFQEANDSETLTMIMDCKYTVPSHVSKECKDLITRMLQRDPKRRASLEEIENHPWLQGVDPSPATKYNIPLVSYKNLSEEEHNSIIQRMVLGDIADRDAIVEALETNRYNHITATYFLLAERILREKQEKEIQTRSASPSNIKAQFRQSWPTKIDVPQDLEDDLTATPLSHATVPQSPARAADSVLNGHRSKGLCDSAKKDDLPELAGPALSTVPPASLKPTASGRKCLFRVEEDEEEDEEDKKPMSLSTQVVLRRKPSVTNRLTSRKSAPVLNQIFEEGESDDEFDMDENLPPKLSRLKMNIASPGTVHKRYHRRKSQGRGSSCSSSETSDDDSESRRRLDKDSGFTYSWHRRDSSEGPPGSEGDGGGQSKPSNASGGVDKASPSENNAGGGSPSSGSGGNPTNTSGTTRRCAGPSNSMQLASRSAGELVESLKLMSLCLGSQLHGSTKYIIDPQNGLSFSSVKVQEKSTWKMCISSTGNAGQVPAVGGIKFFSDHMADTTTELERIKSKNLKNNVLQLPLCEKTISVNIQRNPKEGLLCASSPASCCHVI
Kind of experiment: Selectivity interaction (ActivX KiNativ screen (kinase selectivity in THP-1 cell lysates)) EUB0000639a SNRK. To be noted: lysate, at 0.04 µM. The experiment is classed as subcellular.

The target of experiment [10] is Tyrosine-protein kinase Fgr (Homo sapiens) (UniProt P09769). Put plainly: Selectivity interaction (ActivX KiNativ screen (kinase selectivity in THP-1 cell lysates)) EUB0000639a FGR. To be noted: lysate. The experiment is classed as subcellular.
The target of experiment [11] is T3, Dual specificity mitogen-activated protein kinase kinase 7 (Homo sapiens) (UniProt O14733).
T3 sequence (whole entry): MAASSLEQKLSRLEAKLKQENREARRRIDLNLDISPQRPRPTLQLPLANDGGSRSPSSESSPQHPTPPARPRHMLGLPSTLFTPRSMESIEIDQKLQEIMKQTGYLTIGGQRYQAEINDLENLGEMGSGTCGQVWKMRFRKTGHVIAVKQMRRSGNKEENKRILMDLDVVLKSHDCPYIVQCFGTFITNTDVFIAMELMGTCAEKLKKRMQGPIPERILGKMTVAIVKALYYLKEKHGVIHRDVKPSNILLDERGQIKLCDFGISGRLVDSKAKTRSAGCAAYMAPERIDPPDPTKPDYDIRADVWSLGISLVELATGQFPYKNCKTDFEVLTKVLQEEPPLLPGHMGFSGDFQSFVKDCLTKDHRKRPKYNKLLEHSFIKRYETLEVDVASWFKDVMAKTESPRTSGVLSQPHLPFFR
Put plainly: Selectivity interaction (KinomeScan (DiscoverX)) EUB0000618a MAP2K7. To be noted: at 10 µM.

Sequence of Tyrosine-protein kinase Fgr (Homo sapiens) (P09769 2-529 limits assumed): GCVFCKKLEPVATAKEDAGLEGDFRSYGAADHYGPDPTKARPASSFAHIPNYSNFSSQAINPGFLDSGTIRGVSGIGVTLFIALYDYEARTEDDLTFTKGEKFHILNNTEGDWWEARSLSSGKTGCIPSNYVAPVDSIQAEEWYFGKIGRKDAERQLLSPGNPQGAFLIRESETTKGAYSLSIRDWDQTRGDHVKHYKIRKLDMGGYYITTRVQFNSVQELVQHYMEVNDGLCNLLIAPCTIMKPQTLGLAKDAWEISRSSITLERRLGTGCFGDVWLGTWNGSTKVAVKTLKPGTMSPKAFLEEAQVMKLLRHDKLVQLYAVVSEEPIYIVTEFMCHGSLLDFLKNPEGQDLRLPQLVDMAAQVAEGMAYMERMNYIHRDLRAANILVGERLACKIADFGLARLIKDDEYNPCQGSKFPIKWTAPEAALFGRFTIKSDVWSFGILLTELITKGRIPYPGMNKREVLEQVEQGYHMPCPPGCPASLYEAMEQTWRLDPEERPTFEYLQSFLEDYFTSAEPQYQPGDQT
Sequence of Histone-lysine N-methyltransferase KMT5B (Homo sapiens) (Q4FZB7 whole entry, looked up): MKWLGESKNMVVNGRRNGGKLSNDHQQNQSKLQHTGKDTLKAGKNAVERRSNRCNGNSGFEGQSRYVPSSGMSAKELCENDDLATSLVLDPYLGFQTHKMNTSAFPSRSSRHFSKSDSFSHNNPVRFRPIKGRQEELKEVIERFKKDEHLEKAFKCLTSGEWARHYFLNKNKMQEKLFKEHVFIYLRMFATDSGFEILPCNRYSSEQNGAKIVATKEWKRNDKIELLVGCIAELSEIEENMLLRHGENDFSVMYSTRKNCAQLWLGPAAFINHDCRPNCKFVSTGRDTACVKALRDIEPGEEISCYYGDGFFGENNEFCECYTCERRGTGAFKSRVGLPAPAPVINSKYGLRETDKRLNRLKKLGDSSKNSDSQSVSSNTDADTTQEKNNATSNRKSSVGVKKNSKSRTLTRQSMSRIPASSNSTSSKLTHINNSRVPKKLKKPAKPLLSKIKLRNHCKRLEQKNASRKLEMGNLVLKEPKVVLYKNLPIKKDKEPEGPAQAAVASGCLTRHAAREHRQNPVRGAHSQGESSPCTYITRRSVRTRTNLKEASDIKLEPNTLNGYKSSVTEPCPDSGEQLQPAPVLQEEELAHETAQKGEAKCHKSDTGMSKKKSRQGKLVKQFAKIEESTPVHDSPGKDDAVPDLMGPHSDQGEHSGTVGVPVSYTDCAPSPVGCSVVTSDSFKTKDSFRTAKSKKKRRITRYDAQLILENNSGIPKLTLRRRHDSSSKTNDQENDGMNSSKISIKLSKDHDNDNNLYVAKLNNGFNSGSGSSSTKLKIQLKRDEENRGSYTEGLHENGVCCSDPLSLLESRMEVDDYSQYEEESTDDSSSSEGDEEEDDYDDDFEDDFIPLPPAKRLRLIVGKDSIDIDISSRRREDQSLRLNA
Sequence of Tyrosine-protein kinase Fyn (Homo sapiens) (P06241 2-537 limits assumed): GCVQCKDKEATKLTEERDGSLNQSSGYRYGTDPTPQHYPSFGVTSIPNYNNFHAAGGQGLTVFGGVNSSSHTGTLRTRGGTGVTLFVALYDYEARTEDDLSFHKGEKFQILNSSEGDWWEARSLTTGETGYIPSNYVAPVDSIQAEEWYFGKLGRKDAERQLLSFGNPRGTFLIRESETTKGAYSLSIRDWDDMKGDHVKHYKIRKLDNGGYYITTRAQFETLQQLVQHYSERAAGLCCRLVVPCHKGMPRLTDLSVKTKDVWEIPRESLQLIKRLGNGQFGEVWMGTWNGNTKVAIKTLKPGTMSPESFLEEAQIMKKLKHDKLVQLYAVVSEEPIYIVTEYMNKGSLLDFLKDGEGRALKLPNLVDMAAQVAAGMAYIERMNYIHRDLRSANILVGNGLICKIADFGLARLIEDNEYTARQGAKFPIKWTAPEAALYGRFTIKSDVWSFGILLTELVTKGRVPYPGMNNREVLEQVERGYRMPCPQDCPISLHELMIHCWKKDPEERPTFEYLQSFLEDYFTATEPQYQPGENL
Sequence of Tyrosine-protein kinase ABL2 (P42684 whole entry): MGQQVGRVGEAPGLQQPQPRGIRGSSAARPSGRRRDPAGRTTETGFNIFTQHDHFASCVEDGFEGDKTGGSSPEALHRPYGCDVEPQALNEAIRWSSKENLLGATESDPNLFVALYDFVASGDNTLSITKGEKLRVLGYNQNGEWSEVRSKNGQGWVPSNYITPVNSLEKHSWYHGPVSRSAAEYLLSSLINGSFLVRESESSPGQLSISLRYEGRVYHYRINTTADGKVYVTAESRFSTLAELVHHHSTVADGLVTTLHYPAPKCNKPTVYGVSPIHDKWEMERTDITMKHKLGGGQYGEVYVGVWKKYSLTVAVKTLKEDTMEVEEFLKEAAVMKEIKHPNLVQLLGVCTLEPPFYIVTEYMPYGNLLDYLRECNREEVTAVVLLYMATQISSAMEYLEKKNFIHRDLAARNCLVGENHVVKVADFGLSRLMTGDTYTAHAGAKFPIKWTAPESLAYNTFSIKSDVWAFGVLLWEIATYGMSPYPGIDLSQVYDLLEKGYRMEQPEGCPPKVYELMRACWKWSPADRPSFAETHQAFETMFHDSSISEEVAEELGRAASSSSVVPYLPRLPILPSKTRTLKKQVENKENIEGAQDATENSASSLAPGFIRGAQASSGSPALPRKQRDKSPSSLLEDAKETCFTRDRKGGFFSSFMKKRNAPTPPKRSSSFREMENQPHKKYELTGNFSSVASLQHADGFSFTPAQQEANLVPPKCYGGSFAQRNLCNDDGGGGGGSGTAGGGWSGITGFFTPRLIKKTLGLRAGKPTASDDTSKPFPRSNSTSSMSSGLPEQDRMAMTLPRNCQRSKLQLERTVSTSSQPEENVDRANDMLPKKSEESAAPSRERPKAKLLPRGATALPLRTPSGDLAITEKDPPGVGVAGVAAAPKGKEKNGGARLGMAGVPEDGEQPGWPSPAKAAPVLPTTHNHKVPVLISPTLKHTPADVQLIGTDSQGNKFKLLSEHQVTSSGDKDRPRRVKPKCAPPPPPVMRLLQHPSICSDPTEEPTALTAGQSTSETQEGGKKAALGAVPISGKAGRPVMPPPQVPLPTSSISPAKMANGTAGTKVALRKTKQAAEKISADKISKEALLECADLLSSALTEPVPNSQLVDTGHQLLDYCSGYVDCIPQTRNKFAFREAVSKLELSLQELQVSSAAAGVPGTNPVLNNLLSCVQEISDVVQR
Sequence of Calcium/calmodulin-dependent protein kinase kinase 1 (Homo sapiens) (Q8N5S9 whole entry, looked up): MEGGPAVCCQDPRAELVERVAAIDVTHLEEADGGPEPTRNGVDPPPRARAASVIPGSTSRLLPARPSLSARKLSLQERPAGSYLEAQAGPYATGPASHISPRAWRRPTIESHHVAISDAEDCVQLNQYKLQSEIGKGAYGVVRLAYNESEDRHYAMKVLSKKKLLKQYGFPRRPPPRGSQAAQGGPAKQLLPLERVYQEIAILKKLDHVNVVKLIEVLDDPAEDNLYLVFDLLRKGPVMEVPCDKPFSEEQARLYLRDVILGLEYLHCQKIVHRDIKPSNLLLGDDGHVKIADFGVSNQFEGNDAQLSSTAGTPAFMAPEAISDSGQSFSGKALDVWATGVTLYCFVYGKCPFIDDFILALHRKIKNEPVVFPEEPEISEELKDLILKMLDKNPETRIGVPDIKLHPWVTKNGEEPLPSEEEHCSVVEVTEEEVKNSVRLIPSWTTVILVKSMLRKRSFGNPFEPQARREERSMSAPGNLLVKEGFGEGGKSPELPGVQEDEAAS
Sequence of Serine/threonine-protein kinase/endoribonuclease IRE1 (Homo sapiens) (O75460 19-977 limits assumed): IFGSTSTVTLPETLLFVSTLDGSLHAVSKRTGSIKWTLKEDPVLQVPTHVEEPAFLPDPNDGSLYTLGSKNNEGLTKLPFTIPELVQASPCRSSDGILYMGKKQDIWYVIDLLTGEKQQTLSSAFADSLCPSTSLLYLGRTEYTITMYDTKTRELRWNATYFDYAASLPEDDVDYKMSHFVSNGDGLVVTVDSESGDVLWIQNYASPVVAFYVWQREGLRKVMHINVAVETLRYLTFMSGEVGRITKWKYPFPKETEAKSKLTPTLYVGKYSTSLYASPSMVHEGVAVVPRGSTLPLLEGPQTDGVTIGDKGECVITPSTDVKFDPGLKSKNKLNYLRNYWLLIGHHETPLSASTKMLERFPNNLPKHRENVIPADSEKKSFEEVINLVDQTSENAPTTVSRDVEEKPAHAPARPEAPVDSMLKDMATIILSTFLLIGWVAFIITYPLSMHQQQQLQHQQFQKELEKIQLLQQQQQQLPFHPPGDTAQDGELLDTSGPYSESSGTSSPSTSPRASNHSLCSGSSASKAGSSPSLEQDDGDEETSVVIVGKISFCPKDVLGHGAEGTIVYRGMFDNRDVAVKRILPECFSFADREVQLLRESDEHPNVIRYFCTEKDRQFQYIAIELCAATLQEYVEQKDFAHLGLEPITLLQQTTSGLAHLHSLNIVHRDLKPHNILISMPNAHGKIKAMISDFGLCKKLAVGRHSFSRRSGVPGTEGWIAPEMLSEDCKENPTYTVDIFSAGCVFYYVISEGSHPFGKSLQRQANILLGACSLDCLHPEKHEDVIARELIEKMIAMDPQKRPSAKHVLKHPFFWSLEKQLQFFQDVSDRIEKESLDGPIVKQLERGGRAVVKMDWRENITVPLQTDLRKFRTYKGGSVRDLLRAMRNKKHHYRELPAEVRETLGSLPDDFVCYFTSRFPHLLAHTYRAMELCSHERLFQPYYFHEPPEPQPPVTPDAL

Take `CN(C)C/C=C/C(=O)Nc1ccc(C(=O)N2CCCC(Nc3ncc(Cl)c(-c4c[nH]c5ccccc45)n3)C2)cc1` (stereo unspecified): the % of control in [1] came out at 92%.

For `CCN(CC)CCCCNc1ncc2cc(-c3cc(OC)cc(OC)c3)c(NC(=O)NC(C)(C)C)nc2n1`, the % of control in experiment [2] worked out at 100%. Consider `Nc1cnc(N2CCc3cc(S(=O)(=O)Nc4c(F)cc(Cl)cc4F)cc(N4CCCC4=O)c32)nc1` [TP-020n], for which the % of control in experiment [3] turned out to be 99%. Compound `CCC(=O)N1CCN(c2ccc(-n3c(=O)ccc4cnc5ccc(-c6cnc7ccccc7c6)cc5c43)cc2C(F)(F)F)CC1` displayed a % of control in experiment [4] of 49%. Turning to `Cc1cc(CN)cc(C)c1-c1ncn(C)c1-c1cncn1C`, in experiment [5], the dTM is -0.9 K. In the case of `Cn1cc(-n2cnc3c(NCc4nc5cc(Cl)c(Cl)cc5[nH]4)nc(N4CCOCC4)nc32)cn1`, in experiment [6], the % of inhibition is -111%. As to `Cc1cc(C)cc([C@H]2c3cc(C)ccc3NC(=O)CN2C(=O)c2ccc(Br)s2)c1`, the % of activity in experiment [7] (at 1 µM) and in experiment [7] (at 10 µM) was 103% throughout.

On to `CNC(=O)Nc1ccc(-c2nc(N3CC4CCC(C3)O4)c3cnn(C4CCC5(CC4)OCCO5)c3n2)cc1`, for which, in experiment [8], the % of inhibition was 7%. Take `CC[C@@H]1[C@H](F)C(=O)N[C@@H]1COc1nccc2cc(C(N)=O)c(OC)cc12` [ZIMLOVISERTIB]: the % of inhibition is 9.5% in experiment [9]; -11.8% in [10] (at 0.01 µM); -4.6% in [10] (at 0.04 µM); -12.7% in experiment [10] (at 0.2 µM); -24.1% in experiment [10] (at 1 µM); -17.9% in experiment [10] (at 5 µM). In experiment [11], `O[C@H]1CC[C@H](Nc2ncc3nc(Nc4c(F)cc(F)cc4F)n([C@H]4CCOC4)c3n2)CC1` gave a % of control of 94%.
